This note sets out measurements from ChEMBL document CHEMBL4130617, “Prenylated 2-Phenoxychromones and Flavonoids from Epimedium brevicornum and Revised Structures of Epimedonins A and B” (J Nat Prod, 2018).

For assay [1], the system named is HL-60. In words: Growth inhibition of human HL60 cells at 40 uM after 48 hrs by MTS assay relative to control. Type of assay: functional. The note with it: HL-60, 48 h, read-out: GI. (Tetrazolium dyes change colour on reduction, which living cells bring about.)
Assay [2] concerns SMMC-7721. In words: Growth inhibition of human SMMC7721 cells at 40 uM after 48 hrs by MTS assay relative to control. Type of assay: functional. The following applies: SMMC-7721, 48 h, read-out: GI.
For assay [3], the system named is A549. In words: Growth inhibition of human A549 cells at 40 uM after 48 hrs by MTS assay relative to control. In kind it is functional. The note with it: A549, 48 h, read-out: GI.
The subject of assay [4] is MCF7. The experiment in a line: Growth inhibition of human MCF7 cells at 40 uM after 48 hrs by MTS assay relative to control. Type of assay: functional. The following applies: MCF7, 48 h, read-out: GI.
Assay [5] relates to SW480. The experiment in a line: Growth inhibition of human SW480 cells at 40 uM after 48 hrs by MTS assay relative to control. Type of assay: functional. The note with it: SW480, 48 h, read-out: GI.
The test system of assay [6] is HL-60. The experiment in a line: Cytotoxicity against human HL60 cells after 48 hrs by MTS assay. In kind it is functional, cell-based. The following applies: HL-60, 48 h.
Assay [7] has as its system SMMC-7721. The experiment in a line: Cytotoxicity against human SMMC7721 cells after 48 hrs by MTS assay. Type of assay: functional, cell-based. The following applies: SMMC-7721, 48 h.
In assay [8] the test system is A549. In words: Cytotoxicity against human A549 cells after 48 hrs by MTS assay. Type of assay: functional, cell-based. The note with it: A549, 48 h.
Assay [9] relates to MCF7. In words: Cytotoxicity against human MCF7 cells after 48 hrs by MTS assay. In kind it is functional, cell-based. The following applies: MCF7, 48 h.
In assay [10] the test system is SW480. In words: Cytotoxicity against human SW480 cells after 48 hrs by MTS assay. Type of assay: functional, cell-based. The note with it: SW480, 48 h.

For orientation: IC50 means the concentration at which inhibition is half-maximal. Read a low IC50 as inhibition by little substance.

Consider `CC(C)=CCc1c(O)cc(O)c2c(=O)cc(Oc3ccc(O)cc3)oc12`, for which the inhibition of growth at 40 µM with HL-60 [1], in the assay on SMMC-7721 [2], with A549 [3], with MCF7 [4] and in the assay on SW480 [5] was more than 50% each time. The IC50 in the assay on HL-60 [6], in the assay with SMMC-7721 [7], in the assay on A549 [8], in the assay with MCF7 [9] and in the assay with SW480 [10] was more than 10 µM in each case.

As to `COc1ccc(-c2oc3c(c(O)cc4oc(C(C)(C)O)cc43)c(=O)c2O[C@@H]2O[C@@H](C)[C@H](O)[C@@H](O)[C@H]2O[C@@H]2O[C@@H](C)[C@H](O)[C@@H](O)[C@H]2O)cc1`, the inhibition of growth at 40 µM in the assay on HL-60 [1], in the assay with SMMC-7721 [2], in the assay with A549 [3], in the assay on MCF7 [4] and with SW480 [5] was more than 50% throughout. Besides, the half-inhibitory concentration (IC50) in the assay on HL-60 [6], in the assay with SMMC-7721 [7], in the assay with A549 [8], in the assay on MCF7 [9] and with SW480 [10] was more than 10 µM in each case.

Turning to `C=C(C)C(O)Cc1c(O)cc(O)c2c(=O)cc(Oc3ccc(O)cc3)oc12` (stereo not given), the inhibition of growth at 40 µM with HL-60 [1], in the assay on SMMC-7721 [2], in the assay on A549 [3], with MCF7 [4] and in the assay on SW480 [5] was more than 50% in each case. In addition, the concentration for half-maximal inhibition (IC50) with HL-60 [6], in the assay on SMMC-7721 [7], in the assay on A549 [8], with MCF7 [9] and with SW480 [10] was more than 10 µM in each case.

On to `COc1cc(O)c2c(=O)cc(Oc3ccc(O)cc3)oc2c1C[C@@H](O)C(C)(C)O`, for which the inhibition of growth at 40 µM in the assay on HL-60 [1], in the assay on SMMC-7721 [2], in the assay on A549 [3], in the assay with MCF7 [4] and with SW480 [5] was more than 50% throughout. In addition, the IC50 in the assay with HL-60 [6], with SMMC-7721 [7], in the assay on A549 [8], with MCF7 [9] and in the assay on SW480 [10] was more than 10 µM each time.

For `CC(C)=CCc1cc(Oc2cc(=O)c3c(O)cc(O)c(CC=C(C)C)c3o2)cc(CC=C(C)C)c1O`, the inhibition of growth at 40 µM in the assay with HL-60 [1], with SMMC-7721 [2], with A549 [3], in the assay on MCF7 [4] and with SW480 [5] was more than 50% in each case. Also, the IC50 in the assay with HL-60 [6], in the assay on SMMC-7721 [7], in the assay with A549 [8], with MCF7 [9] and with SW480 [10] was more than 10 µM in each case.

In the case of `COc1cc(O)c2c(=O)cc(Oc3ccc(O)cc3)oc2c1CC=C(C)C`, the inhibition of growth at 40 µM with HL-60 [1], in the assay with SMMC-7721 [2], with A549 [3], in the assay with MCF7 [4] and in the assay with SW480 [5] was more than 50% in each case. The IC50 in the assay with HL-60 [6], in the assay with SMMC-7721 [7], with A549 [8], in the assay on MCF7 [9] and in the assay on SW480 [10] was more than 10 µM each time.

Turning to `CC(C)=CCc1cc(Oc2cc(=O)c3c(O)cc(O)c(CC=C(C)C)c3o2)ccc1O`, the inhibition of growth at 40 µM with HL-60 [1], in the assay with SMMC-7721 [2], with A549 [3], in the assay on MCF7 [4] and with SW480 [5] was more than 50% throughout. Besides, the IC50 with HL-60 [6], with SMMC-7721 [7], in the assay with A549 [8], in the assay with MCF7 [9] and in the assay on SW480 [10] was more than 10 µM each time.

In the case of `CC(C)=CCc1cc(-c2cc(=O)c3c(O)cc(O)c(CC=C(C)C)c3o2)cc(CC=C(C)C)c1O`, the inhibition of growth at 40 µM in the assay on HL-60 [1], in the assay on SMMC-7721 [2], in the assay with A549 [3], in the assay with MCF7 [4] and with SW480 [5] was more than 50% throughout. Further, the IC50 was 4.3 µM in the assay on HL-60 [6]; more than 10 µM with SMMC-7721 [7]; 7.1 µM with A549 [8]; 5.4 µM in the assay on MCF7 [9]; 5.1 µM in the assay on SW480 [10].

With `CC(=O)O[C@H]1C(=O)[C@@]2(C)[C@H]([C@H](OC(=O)c3ccccc3)[C@]3(O)C[C@H](OC(=O)[C@H](O)[C@@H](NC(=O)c4ccccc4)c4ccccc4)C(C)=C1C3(C)C)[C@]1(OC(C)=O)CO[C@@H]1C[C@@H]2O` [PACLITAXEL], the half-maximal inhibitory concentration (IC50) in the assay with HL-60 [6], with SMMC-7721 [7], in the assay on A549 [8], in the assay with MCF7 [9] and in the assay with SW480 [10] was less than 0.008 µM each time.
